The supplement of paper PMC12350171

Legend:
[1] = system: Com21 synthetic gut community; assay: community biomass OD578 after 24 h drug treatment relative to untreated (fraction of untreated control); higher = more community growth; conditions: community: Com21 (Com20 + E. coli ED1a)
Method: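 Com21 (Com20 plus E. coli ED1a) was treated with drug for 24 h under anaerobic conditions in mGAM. Community OD578 was then measured and normalised to untreated Com21; mean of 3 biological replicates.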

[2] = system: Bacteroides uniformis; assay: IC25 growth inhibition; higher = less potent
In short: (§1)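 Under anaerobic conditions, OD578 was read hourly in a plate reader for at least three biological replicates of monocultures grown overnight in mGAM. Each culture started at an OD578 of 0.01 in pre-reduced plates holding twofold drug dilutions and 1% DMSO (or water). IC25 was reported as a tested interval: the lowest concentration where the monotonic median area under the growth curve dropped below the cutoff. That cutoff was 0.75.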

[3] = system: Ruminococcus gnavus; assay: IC25 growth inhibition; higher = less potent
In short: as §1

[4] = system: Clostridium bolteae; assay: IC25 growth inhibition; higher = less potent
In short: as §1

[5] = system: Yersinia pseudotuberculosis; assay: IC25 growth inhibition; higher = less potent
In short: as §1

[6] = system: Dorea formicigenerans; assay: IC25 growth inhibition; higher = less potent
In short: as §1

[7] = system: Clostridium ramosum; assay: IC25 growth inhibition; higher = less potent
In short: as §1

[8] = system: Bacteroides thetaiotaomicron; assay: IC25 growth inhibition; higher = less potent
In short: as §1

[9] = system: Streptococcus salivarius; assay: IC25 growth inhibition; higher = less potent
In short: as §1

[10] = system: Vibrio cholerae; assay: IC25 growth inhibition; higher = less potent
In short: as §1

[11] = system: Parabacteroides merdae; assay: IC25 growth inhibition; higher = less potent
In short: as §1

[12] = system: Salmonella enterica typhimurium; assay: IC25 growth inhibition; higher = less potent
In short: as §1

[13] = system: Coprococcus comes; assay: IC25 growth inhibition; higher = less potent
In short: as §1

[14] = system: Collinsella aerofaciens; assay: IC25 growth inhibition; higher = less potent
In short: as §1

[15] = system: Escherichia coli ED1a; assay: IC25 growth inhibition; higher = less potent
In short: as §1

[16] = system: Shigella flexneri; assay: IC25 growth inhibition; higher = less potent
In short: as §1

[17] = system: Yersinia enterocolitica WA-314; assay: IC25 growth inhibition; higher = less potent
In short: as §1

[18] = system: Eubacterium rectale; assay: IC25 growth inhibition; higher = less potent
In short: as §1

[19] = system: Bacteroides fragilis NT; assay: IC25 growth inhibition; higher = less potent
In short: as §1

[20] = system: Fusobacterium nucleatum subsp. Nucleatum; assay: IC25 growth inhibition; higher = less potent
In short: as §1

[21] = system: Roseburia intestinalis; assay: IC25 growth inhibition; higher = less potent
In short: as §1

[22] = system: Streptococcus parasanguinis; assay: IC25 growth inhibition; higher = less potent
In short: as §1

[23] = system: Clostridium perfringens; assay: IC25 growth inhibition; higher = less potent
In short: as §1

[24] = system: Bacteroides vulgatus; assay: IC25 growth inhibition; higher = less potent
In short: as §1

[25] = system: Clostridium saccharolyticum; assay: IC25 growth inhibition; higher = less potent
In short: as §1

[26] = drug pretreatment concentration 10 µM
[27] = drug pretreatment concentration 20 µM
[28] = drug pretreatment concentration 40 µM
[29] = drug pretreatment concentration 80 µM
[30] = drug pretreatment concentration 160 µM
[31] = drug pretreatment concentration 5 µM
[32] = drug pretreatment concentration 2.5 µM
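For IC25 growth inhibition in this document: lowest concentration where monotonic median growth AUC falls below 0.75 of drug-free control.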

Structure (SMILES)	community biomass OD578 [1, 26]	community biomass OD578 [1, 27]	community biomass OD578 [1, 28]	community biomass OD578 [1, 29]	community biomass OD578 [1, 30]	IC25 growth inhibition [2] [µM]	IC25 growth inhibition [3] [µM]	IC25 growth inhibition [4] [µM]	IC25 growth inhibition [5] [µM]	IC25 growth inhibition [6] [µM]	IC25 growth inhibition [7] [µM]	IC25 growth inhibition [8] [µM]	IC25 growth inhibition [9] [µM]	IC25 growth inhibition [10] [µM]	IC25 growth inhibition [11] [µM]	IC25 growth inhibition [12] [µM]	IC25 growth inhibition [13] [µM]	IC25 growth inhibition [14] [µM]	IC25 growth inhibition [15] [µM]	IC25 growth inhibition [16] [µM]	IC25 growth inhibition [17] [µM]	IC25 growth inhibition [18] [µM]	IC25 growth inhibition [19] [µM]	IC25 growth inhibition [20] [µM]	IC25 growth inhibition [21] [µM]	IC25 growth inhibition [22] [µM]	IC25 growth inhibition [23] [µM]	IC25 growth inhibition [24] [µM]	IC25 growth inhibition [25] [µM]	community biomass OD578 [1, 31]	community biomass OD578 [1, 32]
CC[C@H]1OC(=O)[C@H](C)[C@@H](O[C@H]2C[C@@](C)(OC)[C@@H](O)[C@H](C)O2)[C@H](C)[C@@H](O[C@@H]2O[C@H](C)C[C@H](N(C)C)[C@H]2O)[C@](C)(O)C[C@@H](C)C(=O)[C@H](C)[C@@H](O)[C@]1(C)O [Erythromycin]	0.734	0.696	0.608	0.496	0.409	< 1.25	< 1.25	≤ 2.5	≤ 40	< 1.25	< 1.25	< 1.25	< 1.25	< 1.25	< 1.25	≤ 40	< 1.25	< 1.25	≤ 20	≤ 10	≤ 20	< 1.25	< 1.25	≤ 5	< 1.25	< 1.25	< 1.25	< 1.25	< 1.25		
C#C[C@]1(O)CC[C@H]2[C@@H]3CCc4cc(O)ccc4[C@H]3CC[C@@]21C [Ethinylestradiol]	0.986	0.99	0.976	0.779		> 80	> 80	> 80	> 80	> 80	> 80	> 80	> 80	≤ 40	> 80	> 80	> 80	> 80	> 80	> 80	> 80	> 80	> 80	> 80	> 80	> 80	> 80	> 80	> 80	1.01	
CCN(CC)C(C)CN1c2ccccc2Sc2ccccc21 (centres undefined) [Ethopropazine]	0.981	0.995	0.997	0.992	0.97	≤ 10	> 80	> 80	> 80	> 80	> 80	≤ 2.5	> 80	> 80	< 1.25	> 80	> 80	> 80	> 160	> 80	> 80	> 80	≤ 10	> 80	≤ 80	> 80	> 80	< 1.25	> 80		
O=c1[nH]c(=O)n([C@H]2C[C@H](O)[C@@H](CO)O2)cc1F [Floxuridine]	0.993	0.907	0.886	0.882	0.88	< 1.25	≤ 2.5	≤ 80	≤ 5	> 160	< 1.25	< 1.25	< 1.25	≤ 10	> 160	≤ 40	> 160	> 160	≤ 10	≤ 20	≤ 20	> 160	< 1.25	≤ 80	> 160	< 1.25	< 1.25	< 1.25	≤ 160		
OC(Cn1cncn1)(Cn1cncn1)c1ccc(F)cc1F [Fluconazole]	0.936	1.02	0.993	0.99	1.04	> 160	> 160	> 160	> 160	> 160	> 160	> 160	> 160	> 160	> 160	> 160	> 160	≤ 160	> 160	> 160	> 160	≤ 40	> 160	> 160	> 160	> 160	> 160	> 160	> 160		
CC(=O)N1CCN(c2ccc(OCC3COC(Cn4ccnc4)(c4ccc(Cl)cc4Cl)O3)cc2)CC1 (centres undefined) [Ketoconazole]	0.941	0.979	0.953	0.928	0.731	≤ 40	≤ 80	> 160	> 160	≤ 40	> 160	≤ 80	≤ 80	> 160	≤ 40	> 160	≤ 40	≤ 80	> 160	> 80	> 80	≤ 40	≤ 80	≤ 160	≤ 80	> 80	≤ 80	≤ 40	≤ 80		
N[C@@H](Cc1cc(I)c(Oc2cc(I)c(O)c(I)c2)c(I)c1)C(=O)O [L-Thyroxin]	1.01	1.03	1.02			> 160	> 160	> 160	> 160	≤ 80	> 160	> 160	> 160	> 160	> 160	> 160	> 160	> 160	> 40	> 160	> 160	> 160	> 160	> 160	> 160	> 160	> 160	> 160	> 160	0.999	0.996
CCOC(=O)C1=C(C)NC(C)=C(C(=O)OCC)C1c1ccccc1/C=C/C(=O)OC(C)(C)C [Lacidipine]	1.04	1	0.963			> 40	> 40	> 20	> 20	> 40	> 40	> 20	> 40	> 40	> 40	> 20	> 20	> 20	> 40	> 40	> 20	> 40	> 40	> 40	≤ 20	> 20	≤ 40	> 40	> 20	1.01	1.01
Cc1c(OCC(F)(F)F)ccnc1C[S+]([O-])c1nc2ccccc2[nH]1 (centres undefined) [Lansoprazole]	0.935	0.962	0.952	0.945	0.926	≤ 160	> 160	> 160	> 160	≤ 160	> 160	> 160	> 160	> 160	> 160	> 160	> 160	≤ 160	> 160	> 160	> 160	> 80	> 160	> 160	> 160	> 160	> 160	> 160	> 160		
CCOC(=O)N1CCC(=C2c3ccc(Cl)cc3CCc3cccnc32)CC1 [Loratadine]	1.02	1.01	0.941			> 160	> 80	> 160	> 40	> 160	≤ 80	> 160	> 160	> 160	≤ 40	> 40	> 40	> 160	> 40	> 160	> 80	> 160	> 160	> 160	> 160	> 160	> 160	> 160	> 160	1.01	1
CN1CCN(C2=Nc3ccccc3Oc3ccc(Cl)cc32)CC1 [Loxapine]	0.993	0.996	0.991	0.987	0.951	≤ 160	≤ 160	> 160	> 160	≤ 160	> 160	≤ 40	≤ 160	≤ 80	≤ 10	> 160	> 40	> 160	> 160	> 160	> 160	≤ 40	≤ 80	≤ 160	≤ 160	> 160	≤ 160	≤ 10	> 160		
CN(C)C(=N)NC(=N)N [Metformin]	1.02	1.01	1.01	1.02	1.03	> 160	> 160	> 160	> 160	> 160	> 160	> 160	> 160	> 160	> 160	> 160	> 160	> 160	> 160	> 160	> 160	> 160	> 160	> 160	> 160	> 160	> 160	> 160	> 160		
CN(Cc1cnc2nc(N)nc(N)c2n1)c1ccc(C(=O)N[C@@H](CCC(=O)O)C(=O)O)cc1 [Methotrexate]	0.934	0.95	0.802			≤ 10	≤ 10	≤ 10	> 80	≤ 40	< 1.25	> 80	≤ 5	≤ 40	> 80	> 80	≤ 80	≤ 80	> 40	> 80	> 80	≤ 80	≤ 40	≤ 20	> 80	< 1.25	≤ 20	≤ 20	> 80	0.91	0.93
Clc1ccc(COC(Cn2ccnc2)c2ccc(Cl)cc2Cl)c(Cl)c1 (centres undefined) [Miconazole]	1.02	0.969	0.893	0.702	0.547	> 160	≤ 10	≤ 80	> 40	≤ 5	≤ 10	> 160	> 80	> 40	≤ 80	> 160	≤ 5	≤ 10	> 80	> 40	≤ 160	≤ 2.5	> 160	> 40	≤ 5	> 160	≤ 40	≤ 160	≤ 40		
O=C(Nc1ccc([N+](=O)[O-])cc1Cl)c1cc(Cl)ccc1O [Niclosamide]	0.912	0.901	0.897	0.823	0.811	< 1.25	≤ 10	> 80	> 20	≤ 20	≤ 2.5	< 1.25	< 1.25	< 1.25	< 1.25	> 160	≤ 20	≤ 5	> 80	> 40	> 160	≤ 5	< 1.25	≤ 80	≤ 20	< 1.25	≤ 2.5	< 1.25	≤ 20		
COc1ccc2[nH]c([S+]([O-])Cc3ncc(C)c(OC)c3C)nc2c1 (centres undefined) [Omeprazole]	0.981	0.997	1.01	0.979	0.95	> 160	> 160	> 160	> 160	> 160	> 160	> 160	> 160	> 160	> 160	> 160	> 160	> 160	> 160	> 160	> 160	> 160	> 160	> 160	> 160	> 160	> 160	> 160	> 160		
